In brackets after ≈: the same amount, converted by molar mass.
Key:
Vibrio parahaemolyticus [1] = test: Antimicrobial activity against Vibrio parahaemolyticus assessed as bacterial growth inhibition; format: functional
Vibrio cholerae = test: Antimicrobial activity against Vibrio cholerae assessed as bacterial growth inhibition; format: functional
Vibrio parahaemolyticus [2] = test: Antimicrobial activity against Vibrio parahaemolyticus QDIO-10 assessed as bacterial growth inhibition measured after 24 hrs by microtitre plate reader assay; format: functional
Vibrio anguillarum [3] = test: Antimicrobial activity against Vibrio anguillarum QDIO-8 assessed as bacterial growth inhibition measured after 24 hrs by microtitre plate reader assay; format: functional
Vibrio harveyi [4] = test: Antimicrobial activity against Vibrio harveyi QDIO-9 assessed as bacterial growth inhibition measured after 24 hrs by microtitre plate reader assay; format: functional
Vibrio rotiferianus = test: Antibacterial activity against Vibrio rotiferianus MCCC E385 assessed as cell growth inhibition measured after 24 hrs by resazurin dye based assay; format: functional
Vibrio campbellii = test: Antibacterial activity against Vibrio campbellii MCCC E333 assessed as cell growth inhibition measured after 24 hrs by resazurin dye based assay; format: functional
Vibrio vulnificus [5] = test: Antibacterial activity against Vibrio vulnificus MCCC E1758 assessed as cell growth inhibition measured after 24 hrs by resazurin dye based assay; format: functional
Vibrio parahaemolyticus [6] = test: Antimicrobial activity against Vibrio parahaemolyticus MISR 21116 assessed as bacterial growth inhibition measured after 24 hrs by broth microdilution assay; format: functional
Vibrio vulnificus [7] = test: Antimicrobial activity against Vibrio vulnificus MISR 20716 assessed as bacterial growth inhibition measured after 24 hrs by broth microdilution assay; format: functional
Vibrio alginolyticus [8] = test: Antimicrobial activity against Vibrio alginolyticus MISR 30816 assessed as bacterial growth inhibition measured after 24 hrs by broth microdilution assay; format: functional
Vibrio anguillarum [9] = test: Antimicrobial activity against Vibrio anguillarum assessed as zone of inhibition per disk at 100 ug; format: functional; settings: read-out: IZ
Vibrio anguillarum [10] = test: Antimicrobial activity against Vibrio anguillarum assessed as bacterial growth inhibition by well diffusion method; format: functional
Vibrio natriegens = test: Antimicrobial activity against Vibrio natriegens assessed as bacterial growth inhibition; format: functional
Vibrio brasiliensis = test: Antimicrobial activity against Vibrio brasiliensis assessed as bacterial growth inhibition; format: functional
Vibrio mediterranei = test: Antimicrobial activity against Vibrio mediterranei assessed as bacterial growth inhibition; format: functional
Vibrio alginolyticus [11] = test: Antimicrobial activity against Vibrio alginolyticus assessed as bacterial growth inhibition; format: functional
Vibrio parahaemolyticus [12] = test: Antimicrobial activity against Vibrio parahaemolyticus assessed as zone of inhibition; format: functional
Vibrio anguillarum [13] = test: Antimicrobial activity against Vibrio anguillarum assessed as zone of inhibition; format: functional
Vibrio harveyi [14] = test: Antimicrobial activity against Vibrio harveyi assessed as zone of inhibition; format: functional
Vibrio splendidus = test: Antimicrobial activity against Vibrio splendidus assessed as zone of inhibition; format: functional
Vibrio harveyi [15] = test: Antimicrobial activity against Vibrio harveyi QDIO-9 assessed as bacterial growth inhibition; format: functional
Vibrio parahaemolyticus [16] = test: Antimicrobial activity against Vibrio parahaemolyticus QDIO-10 assessed as bacterial growth inhibition; format: functional
Vibrio parahaemolyticus [17] = test: Antibacterial activity against Vibrio parahaemolyticus assessed as bacterial growth inhibition by broth microdilution; format: functional
Vibrio vulnificus [18] = test: Antimicrobial activity against Vibrio vulnificus MCCC E1758 assessed as bacterial growth inhibition by resazurin dye based assay; format: functional
Vibrio vulnificus [19] = test: Antimicrobial activity against Vibrio vulnificus MCCC E333 assessed as bacterial growth inhibition by resazurin dye based assay; format: functional
Vibrio harveyi [20] = test: Antimicrobial activity against Vibrio harveyi BB120 assessed as bacterial growth reduction by bioluminescence based Quorum-Sensing assay; format: functional, organism-based
Vibrio parahaemolyticus [21] = test: Antimicrobial activity against Vibrio parahaemolyticus MTCC451 assessed as zone of inhibition in diameter per disc at 100 ug measured for 24 to 72 hrs; format: functional; settings: time 24-72 hrs, read-out: IZ
Vibrio vulnificus [22] = test: Antimicrobial activity against Vibrio vulnificus MTCC1145 assessed as zone of inhibition in diameter per disc at 100 ug measured for 24 to 72 hrs; format: functional; settings: time 24-72 hrs, read-out: IZ
Vibrio parahaemolyticus [23] = test: Antibacterial activity against Vibrio parahaemolyticus assessed as bacterial growth inhibition by agar dilution method; format: functional

## O=C(O)c1cc(Cl)c[nH]1
Vibrio parahaemolyticus [1]
  MIC: 25 µg/mL (≈ 172 µM)
Vibrio cholerae
  MIC: 100 µg/mL (≈ 687 µM)

## CC(C)(O)CCCC(C)(O)c1ccc(C(=O)O)cc1O (stereo not given)
Vibrio parahaemolyticus [2]
  MIC: 4 µg/mL (≈ 14.2 µM)
Vibrio anguillarum [3]
  MIC: 4 µg/mL (≈ 14.2 µM)
Vibrio harveyi [4]
  MIC: 4 µg/mL (≈ 14.2 µM)

## COc1cc2oc3c(OC)c(-c4ccc(O)c(CC=C(C)C)c4)cc(OC)c3c2cc1O
Vibrio rotiferianus
  MIC: 7.75 µg/mL (≈ 17.8 µM)
Vibrio campbellii
  MIC: 15.6 µg/mL (≈ 35.9 µM)
Vibrio vulnificus [5]
  MIC: 7.77 µg/mL (≈ 17.9 µM)

## C[C@@H]1CCC/C=C/[C@@H]2O[C@H](C[C@@H](O)C/C=C\C=C\[C@@H](O)C/C=C/C=C\C(=O)O1)[C@H]2O
Vibrio parahaemolyticus [6]
  MIC: 64 µg/mL (≈ 153 µM)
Vibrio vulnificus [7]
  MIC: 64 µg/mL (≈ 153 µM)
Vibrio alginolyticus [8]
  MIC: 64 µg/mL (≈ 153 µM)

## COc1cc(O)c2c(=O)oc3cc(O)cc(C)c3c2c1
Vibrio anguillarum [9]
  zone of inhibition at 100 µg/disc: 9 mm

## O=C(O)c1ccc[nH]1
Vibrio parahaemolyticus [1]
  MIC: 25 µg/mL (≈ 225 µM)
Vibrio cholerae
  MIC: 50 µg/mL (≈ 450 µM)

## C=C(C)[C@H]1O[C@H]2CC[C@@]3(C)[C@@](O)(CC[C@@]4(O)[C@@H]5OC(C)(C)[C@H]6C[C@@H]7C(=C)Cc8c(Cl)cc9[nH]c(c5c9c8[C@@]76O)[C@]34C)[C@]23O[C@@H]3[C@H]1O
Vibrio anguillarum [10]
  MIC: 16 µg/mL (≈ 24.6 µM)

## Cc1cc2c(c(=O)[nH]1)O[C@H]([C@@H](O)CC(C)C)O2
Vibrio natriegens
  MIC: 0.001 µg/mL (≈ 0.00418 µM)

## CC(C)[C@@H](C)/C=C/[C@@H](C)[C@H]1CC[C@@H]2[C@]1(C)CCC1[C@@]23OO[C@]2(C=C3O)C[C@@H](O)CC[C@]12C (stereo not given in full)
Vibrio brasiliensis
  MIC: 32 µg/mL (≈ 72 µM)
Vibrio mediterranei
  MIC: 8 µg/mL (≈ 18 µM)

## COC(=O)[C@@H]1CCCN1C(=O)c1cc2c([nH]c3cc(OC)ccc32)c(C=C(C)C)n1
Vibrio alginolyticus [11]
  MIC: 32 µg/mL (≈ 78.5 µM)

## CC(=O)N[C@H]1[C@@H](O[C@]2(C)C=C[C@@H]([C@@H](C)CCC=C(C)C)CC2)O[C@H](CO)[C@@H](O)[C@@H]1O
Vibrio parahaemolyticus [12]
  inhibition zone (IZ): 6.1 mm
Vibrio anguillarum [13]
  MIC: 6.1 µg/mL (≈ 14.3 µM)
Vibrio harveyi [14]
  MIC: 6.1 µg/mL (≈ 14.3 µM)
Vibrio splendidus
  MIC: 6.1 µg/mL (≈ 14.3 µM)

## CC(C)[C@@H](C)/C=C/[C@@H](C)[C@H]1CC[C@H]2C3=CC(=O)[C@@]45C[C@@H](O)CC[C@]4(C)[C@]3(CC[C@]12C)O5
Vibrio brasiliensis
  MIC: 16 µg/mL (≈ 37.5 µM)

## COC(=O)c1ccc([C@](C)(O)CCCC(C)(C)O)c(O)c1
Vibrio parahaemolyticus [2]
  MIC: 4 µg/mL (≈ 13.5 µM)
Vibrio anguillarum [3]
  MIC: 4 µg/mL (≈ 13.5 µM)
Vibrio harveyi [4]
  MIC: 4 µg/mL (≈ 13.5 µM)

## C=C[C@@]1(C)CCC2=C(C(=O)C=C3C(C)(C)CCC[C@]32O)[C@H]1O
Vibrio harveyi [15]
  MIC: 8 µg/mL (≈ 26.5 µM)
Vibrio parahaemolyticus [16]
  MIC: 8 µg/mL (≈ 26.5 µM)

## CO[C@](C)(CCCC(C)(C)O)c1ccc(C(=O)O)cc1O
Vibrio parahaemolyticus [2]
  MIC: 4 µg/mL (≈ 13.5 µM)
Vibrio anguillarum [3]
  MIC: 4 µg/mL (≈ 13.5 µM)
Vibrio harveyi [4]
  MIC: 4 µg/mL (≈ 13.5 µM)

## CC1(C)C=Cc2c(ccc3c2[N+]([O-])=C2C3CC34NC(=O)[C@@]5(CCCN5C3=O)C[C@H]4C2(C)C)O1 (stereo not given in full)
Vibrio parahaemolyticus [12]; Vibrio parahaemolyticus
  MIC: 8 µg/mL (≈ 17.9 µM)
Vibrio alginolyticus [11]
  MIC: 16 µg/mL (≈ 35.8 µM)

## C[C@]12CC[C@H](O)[C@](C)(CO)[C@@H]1CC[C@]1(C)[C@@H]2C[C@@H](O)[C@@H]2[C@@]3(C)CC[C@H]([C@](C)(O)CO)[C@@H]3CC[C@]21C
Vibrio alginolyticus [11]
  MIC: 16 µg/mL (≈ 32.5 µM)

## COC(=O)[C@@H](C)CCc1cc(O)c(C)cc1O
Vibrio parahaemolyticus [17]
  MIC: 12.5 µg/mL (≈ 52.5 µM)

## Cc1c(O)c(C)c2c(c1O)C(=O)O[C@](C)(O)[C@H]2C
Vibrio vulnificus [18]
  MIC: 16.6 µg/mL (≈ 65.8 µM)
Vibrio vulnificus [19]
  MIC: 15.3 µg/mL (≈ 60.7 µM)

## CC(C)CC(=O)NCCc1ccccc1
Vibrio harveyi [20]
  EC50: 9 µg/mL (≈ 43.8 µM)

## C[C@@H]1CCC/C=C/[C@H](O)C[C@@H](O)C/C=C\C=C\[C@@H](O)C/C=C/C=C\C(=O)O1
Vibrio parahaemolyticus [6]
  MIC: 64 µg/mL (≈ 170 µM)
Vibrio vulnificus [7]
  MIC: 64 µg/mL (≈ 170 µM)
Vibrio alginolyticus [8]
  MIC: 64 µg/mL (≈ 170 µM)

## CC[C@@H](O)/C=C/CC(=O)O[C@@H]1/C=C/C=C\C[C@H](O)C[C@@H](O)/C=C/C=C\CCC[C@@H](C)OC(=O)/C=C\C=C\C1
Vibrio parahaemolyticus [21]
  zone of inhibition at 100 µg/disc: 16 mm
Vibrio vulnificus [22]
  zone of inhibition at 100 µg/disc: 14.3 mm

## CC(C)[C@H]1C(=O)N(C)[C@@H](C)C(=O)NCCC[C@H](NC(=O)/C=C/C=C/C(=O)O)C(=O)N1C
Vibrio parahaemolyticus [23]
  MIC: 3.13 µM (≈ 1.37 µg/mL)
